Measurements as given in US7833967B2, “Synthetic antimicrobial polypeptides” (priority 2003, dated 2010).

Tested on: E. coli TOP10
Assay: Suicide expression system (SES) growth inhibition
Format: cell-based
Settings: Table 2; variants of SEQ ID NO:1, re-tested in the Bioscreen C

| Substance | Growth inhibition (%) |
| --- | --- |
| 16 (RRRPPRIPPRFPPRVPPRFPPRVPPRV; Synthetic antimicrobial peptide) [compound 16] | 98 |
| 25 (RRRPPRLPPRFPPRFPPRVPPRVPPRI; Synthetic antimicrobial peptide) [compound 25] | 81 |
| 13 (RRRPPRFPPRFPPRFPPRFPPRFPPRF; Synthetic antimicrobial peptide) [compound 13] | 51 |
| 23 (RRRPPRLPPRFPPRFPPRVPPRVPPRF; Synthetic antimicrobial peptide) [compound 23] | 82 |
| 14 (RRRPPRFPPRIPPRFPPRLPPRIPPRL; Synthetic antimicrobial peptide) [compound 14] | 90 |
| 20 (RRRPPRLPPRFPPRFPPRVPPRFPPRV; Synthetic antimicrobial peptide) [compound 20] | 86 |
| 18 (RRRPPRLPPRFPPRFPPRIPPRFPPRI; Synthetic antimicrobial peptide) [compound 18] | 99 |

Same assay, conditions: Table 3; variants of SEQ ID NO:5, re-tested in the Bioscreen C

| Substance | Growth inhibition (%) |
| --- | --- |
| 49 (RRRPRPFPRPLPRPVPRPFPRPVPRPL; Synthetic antimicrobial peptide) [compound 49] | 51 |
| 29 (RRRPRLPRPFPRPVPRPLPRPVPRPI; Synthetic antimicrobial peptide) [compound 29] | 63 |
| 56 (RRRPRPIPRPFPRPFPRPFPRPFPRPI; Synthetic antimicrobial peptide) [compound 56] | 51 |
| 60 (RRRPRPIPRPFPRPVPRPVPRPFPRPF; Synthetic antimicrobial peptide) [compound 60] | 70 |
| 46 (RRRPRPFPRPFPRPVPRPFPRPFPRPI; Synthetic antimicrobial peptide) [compound 46] | 84 |
| 41 (RRRPRPFPRPFPRPFPRPVPRPLPRPV; Synthetic antimicrobial peptide) [compound 41] | 71 |
| 50 (RRRPRPFPRPLPRPVPRPFPRPVPRPV; Synthetic antimicrobial peptide) [compound 50] | 69 |
| 51 (RRRPRPFPRPVPRPFPRPFPRPFPRPF; Synthetic antimicrobial peptide) [compound 51] | 77 |

Same assay, conditions: Table 4; variants of SEQ ID NO:10, re-tested in the Bioscreen C

| Substance | Growth inhibition (%) |
| --- | --- |
| 184 (RRRPIRPPIRPPFRPPLRPPFRPPFRP; Synthetic antimicrobial peptide) [compound 184] | 78 |
| 139 (RRRPFRPPFRPPIRPPFRPPIRPPVRP; Synthetic antimicrobial peptide) [compound 139] | 67 |
| 146 (RRRPLRPPFRPPIRPPFRPPFRPPLRP; Synthetic antimicrobial peptide) [compound 146] | 68 |
| 176 (RRRPLRPPVRPPIRPPIRPPFRPPFRP; Synthetic antimicrobial peptide) [compound 176] | 81 |
| 77 (RRRPFRPPFRPPIRPPVRPPFRPPFRP; Synthetic antimicrobial peptide) [compound 77] | 72 |
| 131 (RRRPIRPPFRPPFRPPIRPPIRPPVRP; Synthetic antimicrobial peptide) [compound 131] | 75 |
| 132 (RRRPFRPPFRPPLRPPVRPPVRPPIRP; Synthetic antimicrobial peptide) [compound 132] | 72 |
| 64 (RRRPFRPPFRPPFRPPFRPPFRPPFRP; Synthetic antimicrobial peptide) [compound 64] | 82 |
| 192 (RRRPFRPPFRPPFRPPVRPPVRPPFRP; Synthetic antimicrobial peptide) [compound 192] | 92 |
| 102 (RRRPIRPPFRPPIRPPFRPPLRPPFRP; Synthetic antimicrobial peptide) [compound 102] | 77 |
| 147 (RRRPFRPPFRPPIRPPVRPPVRPPFRP; Synthetic antimicrobial peptide) [compound 147] | 79 |
| 167 (RRRPFRPPLRPPFRPPLRPPLRPPVRP; Synthetic antimicrobial peptide) [compound 167] | 58 |
| 163 (RRRPIRPPFRPPFRPPFRPPIRPPIRP; Synthetic antimicrobial peptide) [compound 163] | 79 |
| 126 (RRRPIRPPIRPPLRPPFRPPFRPPFRP; Synthetic antimicrobial peptide) [compound 126] | 77 |
| 205 (RRRPFRPPFRPPIRPPVRPPFRPPFRP; Synthetic antimicrobial peptide) [compound 205] | 77 |
| 178 (RRRPLRPPFRPPVRPPFRPPFRPPFRP; Synthetic antimicrobial peptide) [compound 178] | 81 |
| 122 (RRRPFRPPFRPPFRPPVRPPFRPPLRP; Synthetic antimicrobial peptide) [compound 122] | 64 |
| 194 (RRRPLRPPFRPPFRPPIRPPFRPPFRP; Synthetic antimicrobial peptide) [compound 194] | 81 |
| 112 (RRRPFRPPIRPPFRPPVRPPVRPPVRP; Synthetic antimicrobial peptide) [compound 112] | 69 |
| 198 (RRRPFRPPFRPPFRPPFRPPFRPPFRP; Synthetic antimicrobial peptide) [compound 198] | 91 |
| 137 (RRRPLRPPFRPPFRPPIRPPFRPPVRP; Synthetic antimicrobial peptide) [compound 137] | 58 |
| 180 (RRRPLRPPIRPPIRPPIRPPFRPPFRP; Synthetic antimicrobial peptide) [compound 180] | 76 |
| 156 (RRRPFRPPLRPPFRPPFRPPIRPPFRP; Synthetic antimicrobial peptide) [compound 156] | 67 |
| 117 (RRRPIRPPIRPPFRPPFRPPIRPPFRP; Synthetic antimicrobial peptide) [compound 117] | 77 |
| 80 (RRRPFRPPFRPPIRPPVRPPVRPPFRP; Synthetic antimicrobial peptide) [compound 80] | 81 |
| 204 (RRRPLRPPLRPPFRPPIRPPFRPPFRP; Synthetic antimicrobial peptide) [compound 204] | 76 |

Same assay, conditions: Table 5; mixed-motif library, re-tested in the Bioscreen C

| Substance | Growth inhibition (%) |
| --- | --- |
| 275 (RRRPPRLPRPLPIRPPPRLPRPFPVRP; Synthetic antimicrobial peptide) [compound 275] | 92 |
| 314 (RRRPPRVPRPLPFRPPPRFPRPIPFRP; Synthetic antimicrobial peptide) [compound 314] | 94 |
| 249 (RRRPPRLPRPFPVRPPPRVPRPVPIRP; Synthetic antimicrobial peptide) [compound 249] | 93 |
| 315 (RRRPPRVPRPVPVRPPPRIPRPFPVRP; Synthetic antimicrobial peptide) [compound 315] | 98 |
| 310 (RRRPPRVPRPFPIRPPPRVPRPVPVRP; Synthetic antimicrobial peptide) [compound 310] | 93 |
| 238 (RRRPPRLPRPFPVRPPPRFPRPFPIRP; Synthetic antimicrobial peptide) [compound 238] | 95 |
| 218 (RRRPPRLPRPFPFRPPPRVPRPIPVRP; Synthetic antimicrobial peptide) [compound 218] | 93 |
| 267 (RRRPPRLPRPLPFRPPPRVPRPFPIRP; Synthetic antimicrobial peptide) [compound 267] | 94 |
| 309 (RRRPPRVPRPFPIRPPPRVPRPIPFRP; Synthetic antimicrobial peptide) [compound 309] | 76 |
| 271 (RRRPPRLPRPLPFRPPPRVPRPVPVRP; Synthetic antimicrobial peptide) [compound 271] | 97 |
| 286 (RRRPPRLPRPLPVRPPPRIPRPLPLRP; Synthetic antimicrobial peptide) [compound 286] | 95 |
| 254 (RRRPPRLPRPIPFRPPPRVPRPFPIRP; Synthetic antimicrobial peptide) [compound 254] | 77 |
| 311 (RRRPPRVPRPFPVRPPPRFPRPVPFRP; Synthetic antimicrobial peptide) [compound 311] | 96 |
| 250 (RRRPPRLPRPIPFRPPPRIPRPIPVRP; Synthetic antimicrobial peptide) [compound 250] | 96 |
| 226 (RRRPPRLPRPFPIRPPPRVPRPIPVRP; Synthetic antimicrobial peptide) [compound 226] | 94 |
| 209 (RRRPPRIPRPFPIRPPPRFPRPIPFRP; Synthetic antimicrobial peptide) [compound 209] | 78 |
| 260 (RRRPPRLPRPIPVRPPPRIPRPIPVRP; Synthetic antimicrobial peptide) [compound 260] | 90 |
| 279 (RRRPPRLPRPLPIRPPPRVPRPLPLRP; Synthetic antimicrobial peptide) [compound 279] | 91 |
| 259 (RRRPPRLPRPIPVRPPPRFPRPIPVRP; Synthetic antimicrobial peptide) [compound 259] | 98 |
| 313 (RRRPPRVPRPIPIRPPPRVPRPVPVRP; Synthetic antimicrobial peptide) [compound 313] | 92 |
| 244 (RRRPPRLPRPFPVRPPPRLPRPVPFRP; Synthetic antimicrobial peptide) [compound 244] | 90 |
| 211 (RRRPPRLPRPFPFRPPPRFPRPIPFRP; Synthetic antimicrobial peptide) [compound 211] | 96 |
| 303 (RRRPPRLPRPVPLRPPPRVPRPLPIRP; Synthetic antimicrobial peptide) [compound 303] | 91 |
| 277 (RRRPPRLPRPLPIRPPPRVPRPFPIRP; Synthetic antimicrobial peptide) [compound 277] | 91 |
